Laboratory results reported in patent publication US20130096170A1 (priority 2011, published 2013).

Key:
clinical [1] = conditions: human, in vivo
clinical [2] = conditions: human

Cc1cccc([C@H](C)c2cnc[nH]2)c1C [dexmedetomidine]
clearance (clinical [1]; Cl Mean): 171 mL/min
clearance (clinical [1]; Cl Median): 162 mL/min
Vd (clinical [1]; Vd Mean): 30.5 L
Vd (clinical [1]; Vd Median): 29.1 L
half-life (clinical [1]; apparent (mean) t1/2): 2.33 h
half-life (clinical [1]; t1/2, Mean): 2.33 h
half-life (clinical [1]; t1/2 Median): 1.87 h
Vd (clinical [2]; in vivo): 43 L
AUC(0-t) (clinical [2]; in vivo, AUC0-t): 117 ng·h/mL
AUC(0-inf) (clinical [2]; in vivo, AUC0-∞): 117 ng·h/mL
Cmax (clinical [2]; in vivo, Cmax): 28.8 ng/mL
clearance (clinical [2]; in vivo, weight-adjusted clearance): ~16.7 mL/min/kg
clearance (clinical [2]; plasma, intravenous, 0.2 ug/kg, CL, Group I (≥2 to <6 y), Dose Level 1 (LD 0.25/CD 0.2 μg/kg/hr), geometric mean, full evaluable population): 271 mL/min
clearance (clinical [2]; plasma, intravenous, 0.2 ug/kg, CL, Group II (≥6 to <17 y), Dose Level 1 (LD 0.25/CD 0.2 μg/kg/hr), geometric mean, full evaluable population): 412 mL/min
Vd (clinical [2]; plasma, intravenous, 0.2 ug/kg, Vd, Group I (≥2 to <6 y), Dose Level 1 (LD 0.25/CD 0.2 μg/kg/hr), geometric mean, full evaluable population): 36.9 L
Vd (clinical [2]; plasma, intravenous, 0.2 ug/kg, Vd, Group II (≥6 to <17 y), Dose Level 1 (LD 0.25/CD 0.2 μg/kg/hr), geometric mean, full evaluable population): 51.7 L
clearance (clinical [2]; plasma, intravenous, 0.4 ug/kg, CL, Group I (≥2 to <6 y), Dose Level 2 (LD 0.50/CD 0.4 μg/kg/hr), geometric mean, full evaluable population): 212 mL/min
clearance (clinical [2]; plasma, intravenous, 0.4 ug/kg, CL, Group II (≥6 to <17 y), Dose Level 2 (LD 0.50/CD 0.4 μg/kg/hr), geometric mean, full evaluable population): 413 mL/min
Vd (clinical [2]; plasma, intravenous, 0.4 ug/kg, Vd, Group I (≥2 to <6 y), Dose Level 2 (LD 0.50/CD 0.4 μg/kg/hr), geometric mean, full evaluable population): 31.8 L
Vd (clinical [2]; plasma, intravenous, 0.4 ug/kg, Vd, Group II (≥6 to <17 y), Dose Level 2 (LD 0.50/CD 0.4 μg/kg/hr), geometric mean, full evaluable population): 61.2 L
clearance (clinical [2]; plasma, intravenous, 0.7 ug/kg, CL, Group I (≥2 to <6 y), Dose Level 3 (LD 1.00/CD 0.7 μg/kg/hr), geometric mean, full evaluable population): 276 mL/min
clearance (clinical [2]; plasma, intravenous, 0.7 ug/kg, CL, Group II (≥6 to <17 y), Dose Level 3 (LD 1.00/CD 0.7 μg/kg/hr), geometric mean, full evaluable population): 274 mL/min
Vd (clinical [2]; plasma, intravenous, 0.7 ug/kg, Vd, Group I (≥2 to <6 y), Dose Level 3 (LD 1.00/CD 0.7 μg/kg/hr), geometric mean, full evaluable population): 46.6 L
Vd (clinical [2]; plasma, intravenous, 0.7 ug/kg, Vd, Group II (≥6 to <17 y), Dose Level 3 (LD 1.00/CD 0.7 μg/kg/hr), geometric mean, full evaluable population): 46.6 L
clearance (clinical [2]; plasma, intravenous, 2 ug/kg, CL, Group I (≥2 to <6 y), Dose Level 4 (LD 1.00/CD 2.00 μg/kg/hr), geometric mean, full evaluable population): 199 mL/min
clearance (clinical [2]; plasma, intravenous, 2 ug/kg, CL, Group II (≥6 to <17 y), Dose Level 4 (LD 1.00/CD 2.00 μg/kg/hr), geometric mean, full evaluable population): 423 mL/min
Vd (clinical [2]; plasma, intravenous, 2 ug/kg, Vd, Group I (≥2 to <6 y), Dose Level 4 (LD 1.00/CD 2.00 μg/kg/hr), geometric mean, full evaluable population): 36.3 L
Vd (clinical [2]; plasma, intravenous, 2 ug/kg, Vd, Group II (≥6 to <17 y), Dose Level 4 (LD 1.00/CD 2.00 μg/kg/hr), geometric mean, full evaluable population): 72.8 L
AUC(0-t) (clinical [2]; plasma, intravenous, AUC0-t Mean, Dose Level 1, LD 0.25/CD 0.2 μg/kg/hr, full evaluable population): 2.68 ng·h/mL
AUC(0-t) (clinical [2]; plasma, intravenous, AUC0-t Mean, Dose Level 2, LD 0.50/CD 0.4 μg/kg/hr, full evaluable population): 6.46 ng·h/mL
AUC(0-t) (clinical [2]; plasma, intravenous, AUC0-t Mean, Dose Level 3, LD 1.00/CD 0.7 μg/kg/hr, full evaluable population): 17 ng·h/mL
AUC(0-t) (clinical [2]; plasma, intravenous, AUC0-t Mean, Dose Level 4, LD 1.00/CD 2.00 μg/kg/hr, full evaluable population): 28.5 ng·h/mL
AUC(0-t) (clinical [2]; plasma, intravenous, AUC0-t Median, Dose Level 1, LD 0.25/CD 0.2 μg/kg/hr, full evaluable population): 1.54 ng·h/mL
AUC(0-t) (clinical [2]; plasma, intravenous, AUC0-t Median, Dose Level 2, LD 0.50/CD 0.4 μg/kg/hr, full evaluable population): 5.25 ng·h/mL
AUC(0-t) (clinical [2]; plasma, intravenous, AUC0-t Median, Dose Level 3, LD 1.00/CD 0.7 μg/kg/hr, full evaluable population): 5.61 ng·h/mL
AUC(0-t) (clinical [2]; plasma, intravenous, AUC0-t Median, Dose Level 4, LD 1.00/CD 2.00 μg/kg/hr, full evaluable population): 25.4 ng·h/mL
AUC(0-t) (clinical [2]; plasma, intravenous, AUC0-t, Table 30 key summary (mean), Dose Level 1, LD 0.25/CD 0.2 μg/kg/hr, full evaluable population): 2.68 ng·h/mL
AUC(0-t) (clinical [2]; plasma, intravenous, AUC0-t, Table 30 key summary (mean), Dose Level 2, LD 0.50/CD 0.4 μg/kg/hr, full evaluable population): 6.46 ng·h/mL
AUC(0-t) (clinical [2]; plasma, intravenous, AUC0-t, Table 30 key summary (mean), Dose Level 3, LD 1.00/CD 0.7 μg/kg/hr, full evaluable population): 17 ng·h/mL
AUC(0-t) (clinical [2]; plasma, intravenous, AUC0-t, Table 30 key summary (mean), Dose Level 4, LD 1.00/CD 2.00 μg/kg/hr, full evaluable population): 28.5 ng·h/mL
AUC(0-inf) (clinical [2]; plasma, intravenous, AUC0-∞ Mean, Dose Level 1, LD 0.25/CD 0.2 μg/kg/hr, full evaluable population): 3.15 ng·h/mL
AUC(0-inf) (clinical [2]; plasma, intravenous, AUC0-∞ Mean, Dose Level 2, LD 0.50/CD 0.4 μg/kg/hr, full evaluable population): 6.67 ng·h/mL
AUC(0-inf) (clinical [2]; plasma, intravenous, AUC0-∞ Mean, Dose Level 3, LD 1.00/CD 0.7 μg/kg/hr, full evaluable population): 17.3 ng·h/mL
AUC(0-inf) (clinical [2]; plasma, intravenous, AUC0-∞ Mean, Dose Level 4, LD 1.00/CD 2.00 μg/kg/hr, full evaluable population): 29 ng·h/mL
AUC(0-inf) (clinical [2]; plasma, intravenous, AUC0-∞ Median, Dose Level 1, LD 0.25/CD 0.2 μg/kg/hr, full evaluable population): 1.58 ng·h/mL
AUC(0-inf) (clinical [2]; plasma, intravenous, AUC0-∞ Median, Dose Level 2, LD 0.50/CD 0.4 μg/kg/hr, full evaluable population): 5.52 ng·h/mL
AUC(0-inf) (clinical [2]; plasma, intravenous, AUC0-∞ Median, Dose Level 3, LD 1.00/CD 0.7 μg/kg/hr, full evaluable population): 6.08 ng·h/mL
AUC(0-inf) (clinical [2]; plasma, intravenous, AUC0-∞ Median, Dose Level 4, LD 1.00/CD 2.00 μg/kg/hr, full evaluable population): 25.7 ng·h/mL
AUC(0-inf) (clinical [2]; plasma, intravenous, AUC0-∞, Table 30 key summary (mean), Dose Level 1, LD 0.25/CD 0.2 μg/kg/hr, full evaluable population): 3.15 ng·h/mL
AUC(0-inf) (clinical [2]; plasma, intravenous, AUC0-∞, Table 30 key summary (mean), Dose Level 2, LD 0.50/CD 0.4 μg/kg/hr, full evaluable population): 6.67 ng·h/mL
AUC(0-inf) (clinical [2]; plasma, intravenous, AUC0-∞, Table 30 key summary (mean), Dose Level 3, LD 1.00/CD 0.7 μg/kg/hr, full evaluable population): 17.3 ng·h/mL
AUC(0-inf) (clinical [2]; plasma, intravenous, AUC0-∞, Table 30 key summary (mean), Dose Level 4, LD 1.00/CD 2.00 μg/kg/hr, full evaluable population): 29 ng·h/mL
clearance (clinical [2]; plasma, intravenous, CL Mean, Dose Level 1, LD 0.25/CD 0.2 μg/kg/hr, full evaluable population): 537 mL/min
clearance (clinical [2]; plasma, intravenous, CL Mean, Dose Level 2, LD 0.50/CD 0.4 μg/kg/hr, full evaluable population): 338 mL/min
clearance (clinical [2]; plasma, intravenous, CL Mean, Dose Level 3, LD 1.00/CD 0.7 μg/kg/hr, full evaluable population): 309 mL/min
clearance (clinical [2]; plasma, intravenous, CL Mean, Dose Level 4, LD 1.00/CD 2.00 μg/kg/hr, full evaluable population): 370 mL/min
clearance (clinical [2]; plasma, intravenous, CL Median, Dose Level 1, LD 0.25/CD 0.2 μg/kg/hr, full evaluable population): 326 mL/min
clearance (clinical [2]; plasma, intravenous, CL Median, Dose Level 2, LD 0.50/CD 0.4 μg/kg/hr, full evaluable population): 267 mL/min
clearance (clinical [2]; plasma, intravenous, CL Median, Dose Level 3, LD 1.00/CD 0.7 μg/kg/hr, full evaluable population): 270 mL/min
clearance (clinical [2]; plasma, intravenous, CL Median, Dose Level 4, LD 1.00/CD 2.00 μg/kg/hr, full evaluable population): 282 mL/min
clearance (clinical [2]; plasma, intravenous, CL, Table 30 key summary (mean), Dose Level 1, LD 0.25/CD 0.2 μg/kg/hr, full evaluable population): 537 mL/min
clearance (clinical [2]; plasma, intravenous, CL, Table 30 key summary (mean), Dose Level 2, LD 0.50/CD 0.4 μg/kg/hr, full evaluable population): 338 mL/min
clearance (clinical [2]; plasma, intravenous, CL, Table 30 key summary (mean), Dose Level 3, LD 1.00/CD 0.7 μg/kg/hr, full evaluable population): 310 mL/min
clearance (clinical [2]; plasma, intravenous, CL, Table 30 key summary (mean), Dose Level 4, LD 1.00/CD 2.00 μg/kg/hr, full evaluable population): 370 mL/min
Cmax (clinical [2]; plasma, intravenous, Cmax Mean, Dose Level 1, LD 0.25/CD 0.2 μg/kg/hr, full evaluable population): 0.48 ng/mL
Cmax (clinical [2]; plasma, intravenous, Cmax Mean, Dose Level 2, LD 0.50/CD 0.4 μg/kg/hr, full evaluable population): 0.848 ng/mL
Cmax (clinical [2]; plasma, intravenous, Cmax Mean, Dose Level 3, LD 1.00/CD 0.7 μg/kg/hr, full evaluable population): 3.39 ng/mL
Cmax (clinical [2]; plasma, intravenous, Cmax Mean, Dose Level 4, LD 1.00/CD 2.00 μg/kg/hr, full evaluable population): 3.09 ng/mL
Cmax (clinical [2]; plasma, intravenous, Cmax Median, Dose Level 1, LD 0.25/CD 0.2 μg/kg/hr, full evaluable population): 0.266 ng/mL
Cmax (clinical [2]; plasma, intravenous, Cmax Median, Dose Level 2, LD 0.50/CD 0.4 μg/kg/hr, full evaluable population): 0.581 ng/mL
Cmax (clinical [2]; plasma, intravenous, Cmax Median, Dose Level 3, LD 1.00/CD 0.7 μg/kg/hr, full evaluable population): 0.966 ng/mL
